In ChEMBL document CHEMBL3046476, “Qsar for Acetylcholinesterase and Butyrylcholinesterase Inhibition by Cardiovascular Drugs and Benzodiazepines” (Med Chem Res, 2005):
Where a name gives a salt, the structure may show the parent alone. Activity calls are given as the source filed them. No cut-off for these calls is given here.

Columns and labels:
[1] = biological target: Cholinesterase (Equus caballus) (UniProt P81908); assay: Reversible mixed-type inhibition of Equus caballus (horse) serum butyrylcholinesterase (BChE) assessed as inhibition of BTCh hydrolysis by Ellman method
Chain of Cholinesterase (Equus caballus) (P81908 whole entry): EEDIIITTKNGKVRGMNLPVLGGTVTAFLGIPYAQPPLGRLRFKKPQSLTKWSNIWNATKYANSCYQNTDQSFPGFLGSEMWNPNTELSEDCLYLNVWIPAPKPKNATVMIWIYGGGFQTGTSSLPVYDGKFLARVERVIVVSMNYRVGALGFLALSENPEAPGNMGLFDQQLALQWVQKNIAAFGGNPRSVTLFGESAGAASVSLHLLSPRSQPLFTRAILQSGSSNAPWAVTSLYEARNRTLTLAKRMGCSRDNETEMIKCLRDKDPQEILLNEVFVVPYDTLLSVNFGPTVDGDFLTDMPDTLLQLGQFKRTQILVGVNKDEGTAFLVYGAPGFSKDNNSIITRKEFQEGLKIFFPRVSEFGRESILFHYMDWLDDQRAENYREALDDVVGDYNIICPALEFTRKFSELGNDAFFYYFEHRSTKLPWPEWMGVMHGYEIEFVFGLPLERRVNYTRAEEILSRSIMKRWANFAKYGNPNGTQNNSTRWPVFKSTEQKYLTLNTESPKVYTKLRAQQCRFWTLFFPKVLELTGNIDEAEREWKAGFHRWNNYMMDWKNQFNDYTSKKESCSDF

[2] = biological target: Acetylcholinesterase (Electrophorus electricus, UniProt O42275); assay: Inhibition of Electrophorus electricus (electric eel) acetylcholinesterase (AChE) assessed as inhibition of ATCh hydrolysis by Ellman method
Chain of Acetylcholinesterase (O42275 whole entry): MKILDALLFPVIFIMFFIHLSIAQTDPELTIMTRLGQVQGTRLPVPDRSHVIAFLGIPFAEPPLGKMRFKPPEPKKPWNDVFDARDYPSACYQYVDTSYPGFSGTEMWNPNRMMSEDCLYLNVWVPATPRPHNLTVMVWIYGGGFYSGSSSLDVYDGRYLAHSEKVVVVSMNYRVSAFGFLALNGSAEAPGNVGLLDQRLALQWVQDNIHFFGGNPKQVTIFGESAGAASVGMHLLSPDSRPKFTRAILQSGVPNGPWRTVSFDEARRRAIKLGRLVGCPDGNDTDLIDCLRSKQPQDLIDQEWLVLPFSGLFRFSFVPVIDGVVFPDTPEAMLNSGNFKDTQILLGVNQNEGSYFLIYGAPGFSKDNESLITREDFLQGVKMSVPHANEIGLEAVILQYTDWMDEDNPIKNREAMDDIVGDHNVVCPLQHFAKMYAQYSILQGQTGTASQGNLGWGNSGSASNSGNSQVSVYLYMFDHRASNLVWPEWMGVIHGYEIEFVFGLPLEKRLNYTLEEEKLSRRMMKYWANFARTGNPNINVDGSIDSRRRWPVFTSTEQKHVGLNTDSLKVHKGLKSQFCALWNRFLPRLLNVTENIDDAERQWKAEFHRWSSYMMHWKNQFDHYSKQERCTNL

[3] = biological target: Cholinesterase (Equus caballus, UniProt P81908); assay: Inhibition of Equus caballus (horse) serum butyrylcholinesterase (BChE) assessed as inhibition of BTCh hydrolysis by Ellman method
Chain of Cholinesterase (P81908 whole entry): as the sequence (P81908 whole entry) above

Row | Structure (SMILES) | inhibition [1] | Ki ([2]; read-out: Ki) [µM] | Ki ([2]; read-out: pKi (converted)) [µM] | Ki ([3]; read-out: Ki) [µM] | Ki ([3]; read-out: pKi (converted)) [µM]
1 | CCOC(=O)C1=C(COCCN)NC(C)=C(C(=O)OC)C1c1ccccc1Cl (centres undefined) | Active | – | – | – | –
2 | CNC1=Nc2ccc(Cl)cc2C(c2ccccc2)=[N+]([O-])C1 | Active | – | – | – | –
3 | CN1C(=O)CN=C(c2ccccc2)c2cc(Cl)ccc21 [DIAZEPAM] | Active | 13 | 251 | – | –
4 | NNc1nncc2ccccc12 [HYDRALAZINE HYDROCHLORIDE] | Active | 7 | 251 | 1.9 | 5.01
5 | CC[C@H](C)C(=O)O[C@H]1C[C@@H](C)C=C2C=C[C@H](C)[C@H](CC[C@@H]3C[C@@H](O)CC(=O)O3)[C@H]21 [LOVASTATIN] | Active | 2.7 | 251 | 1.1 | 5.01
6 | COC(=O)C1=C(C)NC(C)=C(C(=O)OC)C1c1ccccc1[N+](=O)[O-] [NIFEDIPINE] | Active | 4 | 251 | 1.2 | 5.01
7 | CCC(C)(C)C(=O)O[C@H]1C[C@@H](C)C=C2C=C[C@H](C)[C@H](CC[C@@H]3C[C@@H](O)CC(=O)O3)[C@H]21 [SIMVASTATIN] | – | 1.8 | 251 | 0.75 | 5.01
